Data from paper PMC4478171, “Synthesis, characterization, and preclinical validation of a PET radiopharmaceutical for interrogating Aβ (β-amyloid) plaques in Alzheimer’s disease” (EJNMMI Research, 2015).

Tests used:
AD homogenates = AD homogenates (Homo sapiens, UniProt P05067); test: Saturation radioligand binding to AD brain homogenates (insoluble fraction)
Method: Well-established literature procedures were used for preparation of AD homogenates. Grey matter was isolated from frozen postmortem frontal cortex tissue by dissection with a scalpel. To prepare insoluble fractions, dissected tissue was sequentially homogenized in four buffers (3 mL/g wet weight of tissue) with glass dounce tissue grinders (Kimble, Vineland, NJ, USA): 1) high salt (HS) buffer: 50 mM Tris-HCl pH 7.5, 750 mM NaCl, 5 mM EDTA; 2) HSbuffer with 1%Triton X-100; 3) HSbuffer with 1%Triton X-100 and 1 M sucrose; and 4) phosphate-buffered saline (PBS). Homogenates were centrifuged at 100,000×g; after each homogenization step, the pellet was resuspended, and homogenized in the next buffer in the sequence. For comparison in initial binding studies, unfractionated tissue homogenates were also prepared by homogenization of tissue in only PBS. Binding assays were performed using previously described methods. Briefly, a fixed concentration (1 μM/well) of Aβ1-42 fibrils was incubated for 1 h at 37°C with increasing concentrations of ^18F-7B (1.5 to 100 nM) in 30 mM Tris-HCl pH 7.4, 0.1% BSA in a reaction volume of 150 μL. A fixed ratio of hot:cold (^18F-7B and 7A) was used for all radioligand concentrations. The exact hot:cold (^18F-7B:7A) ratio was measured in each experiment by counting an aliquot of a sample (2 μL) of the radioligand preparation in a scintillation counter. Binding of ^18F-7B to human brain homogenates was assessed by incubating samples of insoluble fraction (5-μg insoluble protein/well) from AD subjects, with increasing concentrations of ^18F-7B (1.5 to 100 nM). Nonspecific binding was determined in parallel experiments utilizing 7A (2.5 μM) for Aβ1-42 fibrils and 7A (5 μM) for AD tissue as a competitor. Bound and free radioligand were separated by vacuum filtration through glass fiber 96-well filter plates (Millipore Multiscreen FB filter plate), followed by washes using ice-cold assay buffer (3 × 150 μL). Glass fiber filters containing the bound ligand were mixed with Optiphase Supermix scintillation cocktail (150 μL; PerkinElmer, Waltham, MA, USA) and counted immediately. All data were obtained in triplicate and analyzed by curve fitting to a one-site binding model using nonlinear regression employing Graphpad Prism software (version 4.0) to determine Kd and Bmax values. Bmax values were calculated in pmol/gram wet weight of brain tissue.

[1] = target: cortical Aβ plaques in AD frontal cortex sections (Homo sapiens, UniProt P05067); test: Autoradiography on AD frontal cortex sections with IHC correlation; assay type: binding; conditions: 10 nM tracer, 60 min, 12 μm AD frontal cortex sections
Sequence of cortical Aβ plaques in AD frontal cortex sections (P05067 672-711 limits assumed): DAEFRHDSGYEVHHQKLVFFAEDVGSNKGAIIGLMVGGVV
Method: Frozen AD frontal cortex sections (12 μm) were obtained using a TBS Minotome PLUS Cryostat. The tissue sections were thaw-mounted onto Superfrost Plus (Fisherbrand 12-550-15 (Fisherbrand, Leicestershire, UK)) microscope slides, allowed to air dry for 10 to 15 min, and stored at −80°C. For autoradiography, brain sections were brought to room temperature for 5 min and then pre-incubated in assay buffer (30 mM Tris-HCl, pH 7.4 + 0.1% BSA) for 10 min at RT. Sections were incubated with ^18F-7B (300 μL/slide; 10 nM) in the assay buffer for 60 min at room temperature. For determining nonspecific binding, adjacent sections were incubated in the additional presence of 2.5 μM cold ligand 7A. Sections were then washed at RT for 1 min in 30 mM Tris-HCl pH 7.4, 2 min in 70% ethanol/30 mM Tris-HCl, 1 min in 30% ethanol/30 mM Tris-HCl, and 1 min in 30 mM Tris-HCl (washing protocol using literature precedents. Sections were then dried and exposed to phosphor-imaging screen (BAS-MS 2025) for 30 min. Autoradiography images were obtained on a Fuji Bio-Imaging System FLA-7000 (Tokyo, Japan) and analyzed using MultiGauge software (Fuji, Tokyo, Japan). Following exposure to a phosphor-imaging screen, the sections were then blocked for 60 min at room temperature with 3% milk-0.25% Tween 20-PBS buffer. […]

Sequence of AD homogenates (P05067 672-711 limits assumed): as above

fold higher affinity for AD homogenates compared with fibrils (AD homogenates; AD homogenates vs Aβ1-42 fibrils): 3.4 fold
Bmax (AD homogenates; AD homogenates, one-site model): 1,432 pmol/g wet weight
fold lower binding affinity to AD homogenates than Florbetapir (AD homogenates; comparator value from ref 11): 5 fold
fold lower binding affinity to AD homogenates than Flutemetamol (AD homogenates; comparator value from ref 16): 2.6 fold
fold lower BP than 11C-PIB (AD homogenates; homogenates, comparator from ref 28): 6 fold
fold lower BP than 18F-Florbetaben (AD homogenates; homogenates, comparator from ref 36): 2 fold
Kd (AD homogenates; saturable specific binding, one-site model, nonspecific binding with 7A (5 μM)): 17.7 nM
labeling of Aβ plaques in autoradiography [1]: showed labeling of cortical Aβ plaques
Structure (SMILES): CN(C)c1ccc(/C=C/c2nc3ccc(OCC[18F])cc3s2)cn1 [^18F-7B, (E)-5-(2-(6-(2-[^18F]-fluoroethoxy)-benzo[d]thiazol-2-yl)vinyl)-N,N-dimethylpyridin-2-amine]
